Read-outs that look alike come from different tables or passages of the source. Square brackets hold non-standard residues; d marks the D form. Peptide text beside a SMILES is read from it. * marks the point of attachment. Dolaproine = CO[C@@H]([C@@H]1CCCN1)[C@@H](C)C(=O)O; Dil = CC[C@H](C)[C@H](NC)[C@@H](CC(=O)O)OC; X1 = C[C@@H](N*)[C@@H](O)c1ccccc1; NMeV = CN[C@H](C(=O)O)C(C)C
How the values were obtained:
[1] = system: ABCC3-overexpressing EVSA-T cells; assay: ATP-based luminescence viability assay, ABCC3-overexpressing EVSA-T clones; format: cell-based, human; conditions: for inhibition of cell growth compared to vector-alone control stable cell line: all three overexpressing cell lines, ATP-based luminescence assay (FIG. 5); for EC50: three day assay, read-out: EC50 (concentration that resulted in half-maximal response)
From the text: (§1) The control cell line in FIG. 5 is in fact a clone of EVSA-T derived after transfection with an empty vector and in the particular experiment shown achieved an IC50.
(§2) For ABCC3 overexpression experiments a full length ABCC3 cDNA cloned in the CMV promoter containing vector pCMV5 (Invitrogen, Carlsbad, Calif.) was verified by sequencing the entire coding sequence. The construct was transfected into EVSA-T cells and stable clones were selected by growth in lmg/ml geneticin (Invitrogen Carlsbad, Calif.). Overexpression of ABCC3 in stable clones was confirmed by qRT-PCR on cDNA derived from lines containing pCMV5-ABCC3, pCMV5 vector alone, or the parental EVSA-T strain. All stable cell lines described in this report were determined in qRT-PCR experiments to express at least 25-35× more ABCC3 transcript than vector control lines or the parental cell line.
(§3) Three independently derived lines were confirmed to overexpress ABCC3 transcripts and screened for in vitro sensitivity to paclitaxel and MMAE using an ATP-based luminescence assay. […] The EC50 for the vector control treated with paclitaxel was 0.2 nM while the EC50 values for the ABCC3-expressing lines were 5 nM, 10 nM, and 80 nM, respectively.
EVSA-T cells were stably transfected with an ABCC3 containing plasmid where ABCC3 is expressed at high levels from a cytomegalovirus (CMV) promoter. Overexpression of ABCC3 was confirmed by qRT-PCR.

EFM-192A cells = assay: Mitotic index (phospho histone H3) after ABCC3 or control siRNA, EFM-192A; format: cell-based, human; conditions: for sensitivity (mitotic response) of ABCC3 siRNA transfected cells vs control siRNA (NTC) transfected cells: EFM-192A cells
Experimental: High content screening assays were carried out on an Arrayscan VTI (Cellomics Inc, Pittsburgh, Pa.). Cells were transfected in 96 well format using siRNA “Smartpool” oligonucleotides purchased from Dharmacon Inc and Oligofectamine transfection reagents. To prioritize genes for functional studies, 2-sided Wilcoxon rank sum tests using the R programming language (http://www.r-project.org) were done to identify genes with a significant difference in gene expression in cell lines with more than 4 copies compared to those with less than 4 copies of the 17q21.3 amplicon. This analysis combined with availability of reagents for RNAi experiments led to the selection of the following 24 genes for functional studies in the EFM-192A cell line: ABCC3, COL1A1, CROP, EAP, EPN3, FLJ13855, F1120920, HOXB7, LOC201191, ITGB3, KIAA0924, KPNB1, LOC400604, LOC81558, MGC11242, MGC15396, NDP52, PDK2, PHB, PP1R9B, SLC35B1, SPOP, TOB1, WNT3. Follow-up studies with ABCC3 siRNA were conducted in the additional cell lines ZR75-30, MDAMB-453 and HCC-1428. […] After 48 hours or 72 hours incubation at 37 C, cells were fixed in 3.7% formaldehyde and permeabilized in 0.1% Triton X-100, followed by labeling with a 1:500 dilution of anti-phospho histone H3 (pH3, Upstate) and subsequent 1:250 dilution of Alexa-fluor 488 (Molecular probes) Goat anti-rabbit secondary antibody. Cells were counterstained with Hoechst-33258 to allow identification of nuclei and the percentage of cells positive for nuclear pH3 immunofluorescence, also known as the Mitotic Index (30), was then quantitated for at least 1000 cells per well using Cellomics Target Activation software.
(§4) Phosphorylation at Ser10 of histone H3 is tightly correlated with chromosome condensation during M phase, and the percentage of cells that are positive for pH3 staining, or mitotic index, can be determined through an immunofluorescence assay.

NDAMB361 = assay: Celltiter-Glo Luminescent Cell Viability Assay, NDAMB361; format: cell-based, human; conditions: NDAMB361, 72 hours
Experimental: (§5) For MMAE and paclitaxel IC50 determination, cells were plated in quadruplicate at a density of 3000 cells per well in 384-well plates in normal growth medium and allowed to adhere overnight. Paclitaxel (Sigma) or MMAE (Seattle Genetics, Seattle, Wash.) were added in 10 concentrations based on a three-fold dilution series (1 μmol/L maximal paclitaxel or 0.1 μmol/L maximal for MMAE).
(§6) Cell viability was measured 72 hours later using the Celltiter-Glo Luminescent Cell Viability Assay (Promega, Madison, Wis.). The concentration of drug resulting in the 50% inhibition of cell viability (IC50) was calculated from a four-parameter curve analysis (XLfit, 1DSS software) and was determined from a minimum of three experiments. […] FIG. 6 provides examples of representative cell viability experiments for six cell lines. Cell lines EFM192A, NDAMB361, and BT474 were classified as resistant to each agent in the bioinformatic analysis. AU565, EFM19, and MDAMB468 were classified as sensitive. IC50 values from fitted curves are shown in the charts to the right of each graph.

BT474 = assay: Celltiter-Glo Luminescent Cell Viability Assay, BT474; format: cell-based, human; conditions: BT474, 72 hours
Experimental: as §5, §6

EFM192A = assay: Celltiter-Glo Luminescent Cell Viability Assay, EFM192A; format: cell-based, human; conditions: 72 hours
Experimental: as §5, §6

[2] = system: EVSA-T cells (empty vector control clone); assay: ATP-based luminescence viability assay, EVSA-T vector control line; format: cell-based, human; conditions: three day assay, read-out: EC50 (concentration that resulted in half-maximal response)
From the text: as §1, §2, §3

ZR75-30 = assay: Mitotic index (phospho histone H3) after ABCC3 or control siRNA, ZR75-30; format: cell-based, human; conditions: ZR75-30 (ABCC3 amplified), drug-treated cells
Experimental: (§7) High content screening assays were carried out on an Arrayscan VTI (Cellomics Inc, Pittsburgh, Pa.). Cells were transfected in 96 well format using siRNA “Smartpool” oligonucleotides purchased from Dharmacon Inc and Oligofectamine transfection reagents. To prioritize genes for functional studies, 2-sided Wilcoxon rank sum tests using the R programming language (http://www.r-project.org) were done to identify genes with a significant difference in gene expression in cell lines with more than 4 copies compared to those with less than 4 copies of the 17q21.3 amplicon. […] Cells were counterstained with Hoechst-33258 to allow identification of nuclei and the percentage of cells positive for nuclear pH3 immunofluorescence, also known as the Mitotic Index (30), was then quantitated for at least 1000 cells per well using Cellomics Target Activation software.
as §4, with “An RNA interference strategy was used to identify the gene responsible for mediating resistance to taxanes and auristatins in amplified cell lines. […] Phosphorylation” for “Phosphorylation”, “assay. […]” for “assay.”

MDAMB468 = assay: Celltiter-Glo Luminescent Cell Viability Assay, MDAMB468; format: cell-based; conditions: Homo sapiens, MDA-MB-468; MDAMB468, 72 hours; read-out: classification in the bioinformatic analysis (IC50 cell viability), paclitaxel
Experimental: as §5, §6

MDA-MB-453 = assay: Mitotic index (phospho histone H3) after ABCC3 or control siRNA, MDA-MB-453; format: cell-based, human; conditions: MDA-MB-453 (non-amplified), drug-treated cells
Experimental: as §7
as §4, with “An RNA interference strategy was used to identify the gene responsible for mediating resistance to taxanes and auristatins in amplified cell lines. […] Phosphorylation” for “Phosphorylation”, “assay. […]” for “assay.”

AU565 = assay: Celltiter-Glo Luminescent Cell Viability Assay, AU565; format: cell-based; conditions: Homo sapiens; AU565, 72 hours; read-out: classification in the bioinformatic analysis (IC50 cell viability), paclitaxel
Experimental: as §5, §6

EFM19 = assay: Celltiter-Glo Luminescent Cell Viability Assay, EFM19; format: cell-based; conditions: Homo sapiens, EFM-19; EFM19, 72 hours; read-out: classification in the bioinformatic analysis (IC50 cell viability), paclitaxel
Experimental: as §5, §6

HCC-1428 = assay: Mitotic index (phospho histone H3) after ABCC3 or control siRNA, HCC-1428; format: cell-based, human; conditions: HCC-1428 (non-amplified), drug-treated cells
Experimental: as §7
as §4, with “An RNA interference strategy was used to identify the gene responsible for mediating resistance to taxanes and auristatins in amplified cell lines. […] Phosphorylation” for “Phosphorylation”, “assay. […]” for “assay.”

[3] = system: HER2-positive metastatic breast cancer
Experimental: ABCC3 FISH analysis was performed on samples obtained from the T-DM1 Phase II (TDM4258G) trial to explore the effect of ABCC3 amplification on T-DM1 activity in HER2 amplified breast tumors. The TDM4258G trial is a multi-institutional, open-label, single-arm, Phase II study of T-DM1 administered by IV infusion to patients with HER2-positive metastatic breast cancer. The patients in the trial had shown prior progression on HER2-directed therapy. Formalin Fixed Paraffin Embedded (FFPE) archival tumor tissue samples from the clinical trial was obtained from the clinical investigation sites with appropriate IRB approval and patient consent.
The FISH assay was performed on the clinical trial samples as described in Example 1. […] Those samples with ABCC3/CEP17 ratios of 1.8 and above are considered to have ABCC3 amplification.

[4] = read-out: classification in the bioinformatic analysis (IC50 cell viability), MMAE

COc1cc2cc(c1Cl)N(C)C(=O)C[C@H](OC(=O)[C@H](C)N(C)C(=O)CCS)[C@]1(C)O[C@H]1[C@H](C)[C@@H]1C[C@@](O)(NC(=O)O1)[C@H](OC)/C=C/C=C(\C)C2 [DM1]
sensitivity to free DM1 vs control cell line ([1]; three ABCC3 overexpressing clones, standard cell viability assay (FIG. 7)): more resistant
sensitivity (mitotic response) of ABCC3 siRNA transfected cells vs control siRNA (NTC) transfected cells (EFM-192A cells): more sensitive

CC[C@H](C)[C@@H]([C@@H](CC(=O)N1CCC[C@H]1[C@H](OC)[C@@H](C)C(=O)N[C@H](C)[C@@H](O)c1ccccc1)OC)N(C)C(=O)[C@@H](NC(=O)[C@@H](NC)C(C)C)C(C)C [MMAE, monomethyl auristatin E] (H-[NMeV]V[Dil][Dolaproine]-X1)
inhibition of cell growth compared to vector-alone control stable cell line [1]: markedly less inhibition of cell growth
EC50 ([1]; first ABCC3-expressing EVSA-T line): 1.5 nM
EC50 ([1]; second ABCC3-expressing EVSA-T line): 12 nM
EC50 ([1]; third ABCC3-expressing EVSA-T line): 90 nM
IC50 (NDAMB361; [4]): > 100 nM
IC50 (BT474; [4]): > 100 nM
IC50 (EFM192A; [4]): > 100 nM
EC50 [2]: 0.05 nM

CC(=O)O[C@H]1C(=O)[C@@]2(C)[C@H]([C@H](OC(=O)c3ccccc3)[C@]3(O)C[C@H](OC(=O)[C@H](O)[C@@H](NC(=O)c4ccccc4)c4ccccc4)C(C)=C1C3(C)C)[C@]1(OC(C)=O)CO[C@@H]1C[C@@H]2O [paclitaxel]
EC50 ([1]; Homo sapiens, EVSA-T, 72 h, first ABCC3-expressing EVSA-T line): 5 nM
EC50 ([1]; Homo sapiens, EVSA-T, 72 h, second ABCC3-expressing EVSA-T line): 10 nM
EC50 ([1]; Homo sapiens, EVSA-T, 72 h, third ABCC3-expressing EVSA-T line): 80 nM
inhibition of cell growth compared to vector-alone control stable cell line [1]: markedly less inhibition of cell growth
change in mitotic index, ABCC3 RNAi relative to non-targeting control siRNA (ZR75-30): two to three fold increase
IC50 (NDAMB361; Homo sapiens, read-out: classification in the bioinformatic analysis (IC50 cell viability), paclitaxel): > 1000 nM
IC50 (MDAMB468): < 10 nM
IC50 (BT474; Homo sapiens, BT-474, read-out: classification in the bioinformatic analysis (IC50 cell viability), paclitaxel): > 1000 nM
change in mitotic index, ABCC3 RNAi relative to non-targeting control siRNA (MDA-MB-453): did not appreciably alter
IC50 (EFM192A; Homo sapiens, EFM-192A, read-out: classification in the bioinformatic analysis (IC50 cell viability), paclitaxel): > 1000 nM
IC50 (AU565): < 10 nM
change in mitotic index, ABCC3 RNAi relative to non-targeting control siRNA (EFM-192A cells; EFM-192A (ABCC3 amplified), drug-treated cells): two to three fold increase
EC50 ([2]; Homo sapiens, 72 h): 0.2 nM
IC50 (EFM19): < 10 nM
change in mitotic index, ABCC3 RNAi relative to non-targeting control siRNA (HCC-1428): did not appreciably alter

Trastuzumab-MCC-DM1 [T-DM1]
patients who responded to treatment ([3]; samples with amplification of ABCC3 (ABCC3/CEP17 ratio 1.8 and above), 2/5, IV infusion): 40%
patients who responded to treatment ([3]; samples with no amplification of ABCC3 (ABCC3/CEP17 below 1.8), 12/15, IV infusion): 80%
sensitivity (mitotic response) of ABCC3 siRNA transfected cells vs control siRNA (NTC) transfected cells (EFM-192A cells): more sensitive
